Source: PubChem BioAssay (NCI)
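Interpolation was linear, between the two tested concentrations surrounding the appropriate level; five concentrations were tested over 48 hours in 96-well plates. The concentration for 50% growth inhibition is given as GI50. The concentration for full growth arrest is given as TGI.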

Assays:
Experiment in all cases: NCI anticancer screen, dose series, 48 h
ACHN renal = test system: ACHN renal
CAKI-1 renal = test system: CAKI-1 renal
HOP-62 NSCLC = test system: HOP-62 NSCLC
M14 melanoma = test system: M14 melanoma
MALME-3M melanoma = test system: MALME-3M melanoma
NCI-H226 lung = test system: NCI-H226 lung
NCI-H460 lung = test system: NCI-H460 lung
OVCAR-3 ovarian = test system: OVCAR-3 ovarian
SK-MEL-2 melanoma = test system: SK-MEL-2 melanoma
UACC-257 melanoma = test system: UACC-257 melanoma

In the case of `COc1cc(Nc2ncc(-c3ccccc3)o2)cc(OC)c1OC`, the GI50 (ACHN renal) is reported as 1.18 µM, the TGI (ACHN renal) is reported as > 25 µM and the GI50 (CAKI-1 renal) is reported as 0.37 µM. For the same molecule, the TGI (CAKI-1 renal) was > 25 µM, the GI50 (HOP-62 NSCLC) was 3.47 µM and the TGI (HOP-62 NSCLC) was > 25 µM. The GI50 (M14 melanoma) was 1.26 µM, the TGI (M14 melanoma) was > 25 µM and the GI50 (MALME-3M melanoma) was 6.29 µM. The TGI (MALME-3M melanoma) was > 25 µM, the GI50 (NCI-H226 lung) was 2.97 µM and the TGI (NCI-H226 lung) was > 25 µM. The GI50 (NCI-H460 lung) was 0.161 µM, the TGI (NCI-H460 lung) was > 25 µM and the GI50 (OVCAR-3 ovarian) was 3.94 µM. For the same molecule, the TGI (OVCAR-3 ovarian) was 24.9 µM, the GI50 (SK-MEL-2 melanoma) was 1.52 µM and the TGI (SK-MEL-2 melanoma) was > 11.6 µM. The GI50 (UACC-257 melanoma) was > 15.9 µM and the TGI (UACC-257 melanoma) was > 25 µM.
`O=C(O)CCN1C(=O)/C(=C/C(Cl)=C/c2ccccc2)SC1=S` was tested, and the GI50 (ACHN renal) was 1.93 µM, the TGI (ACHN renal) was 4.76 µM and the GI50 (CAKI-1 renal) was 2.2 µM. It also gave a TGI (CAKI-1 renal) of 5.62 µM, a GI50 (HOP-62 NSCLC) of 3.74 µM and a TGI (HOP-62 NSCLC) of 13.3 µM. The GI50 (M14 melanoma) was 2.24 µM, the TGI (M14 melanoma) was 8.32 µM and the GI50 (MALME-3M melanoma) was 2.22 µM. It also gave a TGI (MALME-3M melanoma) of 5.23 µM, a GI50 (NCI-H226 lung) of 6.46 µM and a TGI (NCI-H226 lung) of 95.9 µM. The GI50 (NCI-H460 lung) was 3.21 µM, the TGI (NCI-H460 lung) was 10.8 µM and the GI50 (OVCAR-3 ovarian) was 2.41 µM. The TGI (OVCAR-3 ovarian) was 7.01 µM, the GI50 (SK-MEL-2 melanoma) was 2.16 µM and the TGI (SK-MEL-2 melanoma) was 6.27 µM. For the same molecule, the GI50 (UACC-257 melanoma) was 1.96 µM and the TGI (UACC-257 melanoma) was 7.81 µM.
Molecule `COc1ccc(C2CC(C)=Nc3c([nH]c(=S)[nH]c3=O)N2)cc1` (stereo not drawn) has a TGI (ACHN renal) of 36.1 µM, a TGI (CAKI-1 renal) of 65 µM and a TGI (HOP-62 NSCLC) of 68.5 µM. The TGI (M14 melanoma) was 37.4 µM, the TGI (MALME-3M melanoma) was > 100 µM and the TGI (NCI-H226 lung) was 44.6 µM. The TGI (NCI-H460 lung) was 33.3 µM, the TGI (OVCAR-3 ovarian) was 55.2 µM and the TGI (SK-MEL-2 melanoma) was > 100 µM. For the same molecule, the TGI (UACC-257 melanoma) was 33.9 µM.
For `CC(Cl)CC(=O)Nc1ccc2c(c1)oc(=O)c1cc(NC(=O)CC(C)Cl)ccc12` (stereo not drawn), the GI50 (ACHN renal) was 12.2 µM, the TGI (ACHN renal) was 31.8 µM and the GI50 (CAKI-1 renal) was 19.7 µM. For the same molecule, the TGI (CAKI-1 renal) was > 100 µM, the GI50 (HOP-62 NSCLC) was 11.5 µM and the TGI (HOP-62 NSCLC) was 28.2 µM. It also gave a GI50 (M14 melanoma) of 12.4 µM, a TGI (M14 melanoma) of 37.5 µM and a GI50 (MALME-3M melanoma) of 4.28 µM. The TGI (MALME-3M melanoma) was 21.3 µM, the GI50 (NCI-H226 lung) was 23.6 µM and the TGI (NCI-H226 lung) was > 100 µM. It also gave a GI50 (NCI-H460 lung) of 13.7 µM, a TGI (NCI-H460 lung) of 40.9 µM and a GI50 (OVCAR-3 ovarian) of 14.3 µM. It also gave a TGI (OVCAR-3 ovarian) of 31.1 µM, a GI50 (SK-MEL-2 melanoma) of 2.99 µM and a TGI (SK-MEL-2 melanoma) of 83.6 µM. It also gave a GI50 (UACC-257 melanoma) of 23.2 µM and a TGI (UACC-257 melanoma) of 76.2 µM.
`C=C(C)[C@@H]1CC[C@]2(C#N)CC[C@]3(C)[C@H](CC[C@@H]4[C@@]5(C)CCCNC(C)(C)[C@@H]5CC[C@]43C)[C@@H]12` showed a GI50 (ACHN renal) of 1.83 µM, a TGI (ACHN renal) of 3.22 µM and a GI50 (CAKI-1 renal) of 3.2 µM. For the same molecule, the TGI (CAKI-1 renal) was 11.5 µM, the GI50 (HOP-62 NSCLC) was 1.65 µM and the TGI (HOP-62 NSCLC) was 3.29 µM. It also gave a GI50 (M14 melanoma) of 1.83 µM, a TGI (M14 melanoma) of 3.49 µM and a GI50 (MALME-3M melanoma) of 1.61 µM. The TGI (MALME-3M melanoma) was 3.2 µM, the GI50 (NCI-H226 lung) was 2.61 µM and the TGI (NCI-H226 lung) was 9.79 µM. The GI50 (NCI-H460 lung) was 1.88 µM, the TGI (NCI-H460 lung) was 3.54 µM and the GI50 (OVCAR-3 ovarian) was 1.75 µM. For the same molecule, the TGI (OVCAR-3 ovarian) was 3.38 µM, the GI50 (SK-MEL-2 melanoma) was 2.1 µM and the TGI (SK-MEL-2 melanoma) was 3.94 µM. It also gave a GI50 (UACC-257 melanoma) of 2.27 µM and a TGI (UACC-257 melanoma) of 4.3 µM.
`CC(C)S(=O)(=O)n1c(N)nc2ccc(/C(=N/O)c3ccccc3)cc21` gave a TGI (ACHN renal) of 57.8 µM, a TGI (CAKI-1 renal) of 76.9 µM and a TGI (HOP-62 NSCLC) of 40.8 µM. The TGI (M14 melanoma) was 65.9 µM, the TGI (MALME-3M melanoma) was > 100 µM and the TGI (NCI-H226 lung) was 23.4 µM. The TGI (NCI-H460 lung) was > 100 µM, the TGI (OVCAR-3 ovarian) was 50.6 µM and the TGI (SK-MEL-2 melanoma) was 54.1 µM. For the same molecule, the TGI (UACC-257 melanoma) was > 100 µM.
`O=C(O)c1oc2ccc([N+](=O)[O-])c3c2c1CCC3` was tested, and the TGI (ACHN renal) was > 100 µM, the TGI (CAKI-1 renal) was > 100 µM and the TGI (HOP-62 NSCLC) was > 100 µM. For the same molecule, the TGI (M14 melanoma) was > 100 µM, the TGI (MALME-3M melanoma) was > 100 µM and the TGI (NCI-H226 lung) was > 100 µM. For the same molecule, the TGI (NCI-H460 lung) was > 100 µM, the TGI (OVCAR-3 ovarian) was > 100 µM and the TGI (SK-MEL-2 melanoma) was > 100 µM. The TGI (UACC-257 melanoma) was > 100 µM.
For `O=C(/C=C/c1cccs1)Nc1ncc(Cc2ccccc2F)s1`, the GI50 (ACHN renal) was 0.462 µM, the TGI (ACHN renal) was > 100 µM and the GI50 (CAKI-1 renal) was 0.0753 µM. The TGI (CAKI-1 renal) was > 100 µM, the GI50 (HOP-62 NSCLC) was 0.407 µM and the TGI (HOP-62 NSCLC) was > 100 µM. The GI50 (M14 melanoma) was 0.12 µM, the GI50 (MALME-3M melanoma) was 0.359 µM and the TGI (MALME-3M melanoma) was > 100 µM. The TGI (NCI-H226 lung) was > 100 µM, the GI50 (NCI-H460 lung) was 0.335 µM and the TGI (NCI-H460 lung) was > 100 µM. For the same molecule, the GI50 (OVCAR-3 ovarian) was 0.216 µM, the TGI (OVCAR-3 ovarian) was 0.671 µM and the GI50 (SK-MEL-2 melanoma) was 0.518 µM. For the same molecule, the TGI (SK-MEL-2 melanoma) was > 100 µM, the GI50 (UACC-257 melanoma) was > 100 µM and the TGI (UACC-257 melanoma) was > 100 µM.
With `CCn1cc(C2NC(=O)c3cc(F)ccc3N2)c2cccc(Cl)c21` (stereo not drawn) the GI50 (ACHN renal) was 0.606 µM, the TGI (ACHN renal) was > 100 µM and the GI50 (CAKI-1 renal) was 0.196 µM. For the same molecule, the TGI (CAKI-1 renal) was > 100 µM, the GI50 (HOP-62 NSCLC) was 0.485 µM and the TGI (HOP-62 NSCLC) was > 100 µM. For the same molecule, the GI50 (M14 melanoma) was 0.138 µM, the TGI (M14 melanoma) was > 100 µM and the GI50 (MALME-3M melanoma) was 2.55 µM. For the same molecule, the TGI (MALME-3M melanoma) was > 100 µM, the GI50 (NCI-H226 lung) was 0.664 µM and the TGI (NCI-H226 lung) was 9.63 µM. For the same molecule, the GI50 (NCI-H460 lung) was 0.32 µM, the TGI (NCI-H460 lung) was > 100 µM and the GI50 (OVCAR-3 ovarian) was 0.1 µM. For the same molecule, the TGI (OVCAR-3 ovarian) was 0.596 µM, the GI50 (SK-MEL-2 melanoma) was 0.887 µM and the TGI (SK-MEL-2 melanoma) was > 100 µM. The GI50 (UACC-257 melanoma) was > 100 µM and the TGI (UACC-257 melanoma) was > 100 µM.
With `COc1ccccc1OCC(O)CO` (stereo not drawn) the GI50 (ACHN renal) was > 100 µM, the TGI (ACHN renal) was > 100 µM and the GI50 (CAKI-1 renal) was > 100 µM. For the same molecule, the TGI (CAKI-1 renal) was > 100 µM, the GI50 (HOP-62 NSCLC) was > 100 µM and the TGI (HOP-62 NSCLC) was > 100 µM. The GI50 (M14 melanoma) was > 100 µM, the TGI (M14 melanoma) was > 100 µM and the GI50 (MALME-3M melanoma) was > 100 µM. For the same molecule, the TGI (MALME-3M melanoma) was > 100 µM, the GI50 (NCI-H226 lung) was > 100 µM and the TGI (NCI-H226 lung) was > 100 µM. The GI50 (NCI-H460 lung) was > 100 µM, the TGI (NCI-H460 lung) was > 100 µM and the GI50 (OVCAR-3 ovarian) was > 100 µM. The TGI (OVCAR-3 ovarian) was > 100 µM, the GI50 (SK-MEL-2 melanoma) was > 100 µM and the TGI (SK-MEL-2 melanoma) was > 100 µM. The GI50 (UACC-257 melanoma) was > 100 µM and the TGI (UACC-257 melanoma) was > 100 µM.
